Results as given in paper PMC7329766, “Synthesis of the Thomsen-Friedenreich-antigen (TF-antigen) and binding of Galectin-3 to TF-antigen presenting neo-glycoproteins” (Glycoconjugate Journal, 2020).

B1: BgaC (β-galactosidase) (Niallia circulans; E233G) (protein)
chain: MSQLTYDDSFLLDGKEIRLLSGAMHYFRTVPEYWEDRLLKLKACGFNTVETYVAWNLHEPEEGQFVFEGIADIVRFIKTAEKVGLHVIVRPGPFICAEWEFGGFPYWLLTVPNIKLRCFNQPYLEKVDAYFDVLFERLRPLLSSNGGPIIALQIENEYGSFGNDQKYLQYLRDGIKKRVGNELLFTSDGPEPSMLSGGMIEGIFETVNFGSRAESAFAQLKQYQPNAPLMCMGFWHGWFDHWGEEHHTRSAESVVETLEEILKQNGSVNFYMAHGGTNFGFYNGANHNETDYQPTITSYDYDGLLTESGDVTEKFYAVRKVFEKYVDLPELNLPAPIPKRLFGKVKFTEHAGLLDSLHRISTPQKSEAPLPMEKYGQAYGFIVYETTIKGAYGKQALTVQDIHDRGQVYVNGEYVGIVERNRGCSRLVVELTEEESKLQIIVENMGRINYGPFVVDYKGITEGVRLGNQFLFDWTVYPLPLKDLSSLEFTADEVKENFPYFHKGILTVDKAADTFIDLSEWTKGVVFVNGHHLGRYWEIGPQQTLYVPAPFLQEGENEIILLELHKHHQSVTFVDTPVLGAIPKTP
notes: recombinant, plasmid pETDuet-1, E. coli BL21 (DE3), IMAC purified

Tests used:
human galectin-3 (Gal-3) = molecular target: T1, human galectin-3 (Gal-3) (Homo sapiens, UniProt P17931); assay: competitive enzyme-linked lectin assay, inhibition of Gal-3 binding to immobilized asialofetuin
T1 construct: gene LGALS3; N-terminal His6-tag (kept, used for detection), expressed in E. coli Rosetta (DE3) pLysS, IMAC purified

[1] = substrate: OC[C@H]1O[C@H](F)[C@H](O)[C@@H](O)[C@H]1O; assay: discontinuous HPLC assay, glycosynthase reaction; format: biochemical, Niallia circulans; details: donor substrate, acceptor GalNAc(α1-EG3-azide fixed at 5 mM), 50 mM HEPES pH 7.2, 30 °C, text gives 0.22 mM for the donor, Fig. 2 legend prints 0.22 M and assigns it to panel b (acceptor)

T1 sequence (P17931 whole entry): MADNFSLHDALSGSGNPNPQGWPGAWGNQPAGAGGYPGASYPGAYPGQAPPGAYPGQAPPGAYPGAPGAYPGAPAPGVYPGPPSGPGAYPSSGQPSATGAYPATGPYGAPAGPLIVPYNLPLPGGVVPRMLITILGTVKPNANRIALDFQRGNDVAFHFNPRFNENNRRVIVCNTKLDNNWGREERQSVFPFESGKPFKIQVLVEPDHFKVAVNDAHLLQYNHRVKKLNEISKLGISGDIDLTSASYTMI

Row | Molecule | IC50 (human galectin-3 (Gal-3)) | Km [1]
1 | CC(=O)N[C@H]1[C@@H](OCCOCCOCCN=[N+]=[N-])O[C@H](CO)[C@H](O)[C@@H]1O[C@@H]1O[C@H](CO)[C@H](O)[C@H](O)[C@H]1O [compound 6, TF-antigen-azide] | 1560 ± 92.6 µM | 
2 | B1 |  | 220 µM
